In article PMC6277767, “Broad and Region-Specific Impacts of the Synthetic Cannabinoid CP 55,940 in Adolescent and Adult Female Mouse Brains” (Frontiers in Molecular Neuroscience, 2018):

System: CD1 female mouse brain lipidome
Assay: Brain-region lipid levels (HPLC/MS/MS lipidomics) 2 h after single i.p. 3 mg/kg CP 55,940 vs vehicle
Type: in vivo
Details: thalamus
Procedure: The Bloomington Institutional Animal Care and Use Committee of Indiana University reviewed and approved the animal procedures. Female mice from the CD1 strain were utilized to match our study examining THC’s effects on the brain lipidome ([Leishman et al., 2018]). Mice were given a single i.p. injection of either 3 mg/kg CP or 1:1:18 cremophor:ethanol:saline vehicle (please refer to the section “3 mg/kg CP Is Relevant for Synthetic Cannabinoid Abuse and Has Stronger Effects on the Female Mouse Brain Lipidome During Adolescence” for a justification of dose and use of female mice). Three different age groups were given injections: PND 35 and PND 50 adolescents, and adult mice (PND 113). At least eight mice in each age group received CP and at least eight received vehicle. Matching the THC study time course ([Leishman et al., 2018]), mice were sacrificed via rapid decapitation 2 h after injection. Brains were immediately removed and flash-frozen in liquid nitrogen, and then stored at -80°C until dissections were performed. Brains were dissected on an ice-cold dissection plate into the following regions: STR, HIPP, CER, THAL, CTX, HYP, MID, and STEM. These abbreviations for these brain areas will be used exclusively when discussing the results generated by these specific dissections. Each dissected area was immediately placed in liquid nitrogen and then stored at -80°C until used for lipid extraction.
Tissue extracts were performed as previously described ([Bradshaw et al., 2006]; [Stuart et al., 2013]; [Raboune et al., 2014]; [Leishman et al., 2016a],[b], [2017], [2018]). First, samples were shock frozen in liquid nitrogen, weighed, and transferred to a centrifuge tube. The mass of the largest sample was multiplied by 50 to determine how many milliliters of HPLC-grade methanol (Fisher, Fair Lawn, NJ, United States) to add. Then, samples were spiked with 500 pmol deuterium-labeled NAGly (d8NAGly; Cayman Chemical, Ann Arbor, MI, United States). Samples were placed on ice in darkness for 2 h then individually homogenized and centrifuged at 19,000 × g for 20 min at 20°C. Supernatants were diluted with HPLC water (purified in house) to make a solution of 75% water, 25% supernatant. Lipids were partially purified on C18 solid phase extraction columns (Agilent, Palo Alto, CA, United States). A series of four elutions with 1.5 mL of 60%, 75%, 85%, and 100% methanol were collected ([Stuart et al., 2013]; [Leishman et al., 2016a],[b], [2018]).
As previously described ([Bradshaw et al., 2006]; [Tan et al., 2006]; [Smoum et al., 2010]; [Stuart et al., 2013]; [Tortoriello et al., 2013]; [Raboune et al., 2014]; [Leishman et al., 2016a],[b], [2017], [2018]), samples were analyzed using an Applied Biosystems API 3000 triple quadrupole mass spectrometer with electrospray ionization (Foster City, CA, United States). Using an Agilent XDB-C18 reversed phase analytical column and optimized mobile phase gradients, 20 μL from each elution were chromatographed. Two Shimadzu 10ADvp pumps (Columbia, MD, United States) provided the pressure for gradient elution. Mobile phase A: 20% methanol, 80% water (v/v) and 1 mM ammonium acetate (Sigma, St. Louis, MO, United States). Mobile phase B: 100% methanol, 1 mM ammonium acetate. Every method run began with 0% mobile phase B, reached 100% mobile phase B flowing at 0.2 mL/min, and gradually returned to 0% mobile phase B.
This screening library will be referred to as the lipidome when discussing data from this study. HPLC/MS/MS data were analyzed using Analyst software (Applied Biosystems) ([Bradshaw et al., 2006]; [Tan et al., 2006]; [Stuart et al., 2013]; [Tortoriello et al., 2013]; [Raboune et al., 2014]; [Leishman et al., 2016a],[b], [2017], [2018]). Chromatograms (Supplementary Figure 3) were generated by determining the retention time of analytes from the analytical column with a [M-1] or [M+1] parent peak and a fragmentation peak corresponding to the programmed values. […]

[1] = WT adult female mice, 3mg/kg CP 55,940

## CCCCCCC(C)(C)c1ccc([C@@H]2C[C@H](O)CC[C@H]2CCCO)c(O)c1 [CP 55,940]
[1]
  N-docosahexaenoyl ethanolamine level, Mean: 2.99E-11
  N-docosahexaenoyl glycine level, Mean: 1.3E-13
  N-docosahexaenoyl phenylalanine level, Mean: 4.66E-14
  N-linoleoyl GABA level, Mean: 7.91E-12
  N-linoleoyl alanine level, Mean: 5.44E-13
  N-linoleoyl ethanolamine level, Mean: 1.72E-11
  N-linoleoyl glycine level, Mean: 9.08E-14
  N-linoleoyl serine level, Mean: 4.53E-11
  N-oleoyl GABA level, Mean: 1.73E-11
  N-oleoyl alanine level, Mean: 2.34E-12
  N-oleoyl ethanolamine level, Mean: 1.6E-10
  N-oleoyl glycine level, Mean: 4.19E-13
  N-oleoyl leucine level, Mean: 7.81E-13
  N-oleoyl methionine level, Mean: 5.74E-13
  N-oleoyl phenylalanine level, Mean: 4.73E-13
  N-oleoyl serine level, Mean: 2E-10
  N-palmitoyl GABA level, Mean: 2.74E-11
  N-palmitoyl alanine level, Mean: 2.22E-12
  N-palmitoyl ethanolamine level, Mean: 6.49E-11
  N-palmitoyl glycine level, Mean: 2.5E-12
  N-palmitoyl leucine level, Mean: 2.46E-12
  N-palmitoyl methionine level, Mean: 3.82E-12
  N-palmitoyl phenylalanine level, Mean: 4.13E-13
  N-palmitoyl serine level, Mean: 1.13E-11
  N-palmitoyl tyrosine level, Mean: 3.42E-13
  N-palmitoyl valine level, Mean: 1.9E-13
  N-stearoyl GABA level, Mean: 1.7E-11
  N-stearoyl alanine level, Mean: 2.97E-12
  N-stearoyl ethanolamine level, Mean: 1.06E-11
  N-stearoyl glycine level, Mean: 1.83E-12
  N-stearoyl leucine level, Mean: 1.05E-12
  N-stearoyl methionine level, Mean: 4.98E-13
  N-stearoyl phenylalanine level, Mean: 2.37E-13
  N-stearoyl serine level, Mean: 2.33E-11
  N-stearoyl tyrosine level, Mean: 8.82E-14
  Oleic acid level, Mean: 4.55E-10
  PGE2 level, Mean: 1.93E-10
  PhosphoLEA level, Mean: 3.87E-12
adult, 3 mg/kg CP 55,940
  2-arachidonoyl glycerol: Direction (relative to Veh): ↓
  2-arachidonoyl glycerol: Magnitude (x Veh level): 0.81 x Veh level
  2-linoleoyl glycerol: Direction (relative to Veh): ↓
  2-linoleoyl glycerol: Magnitude (x Veh level): 0.77 x Veh level
  6-ketoPGF1α: Direction (relative to Veh): ↑
  6-ketoPGF1α: Magnitude (x Veh level): 1.23 x Veh level
  Arachidonic acid: Direction (relative to Veh): ↓
  Arachidonic acid: Magnitude (x Veh level): 0.83 x Veh level
  N-arachidonoyl GABA: Direction (relative to Veh): ↓
  N-arachidonoyl GABA: Magnitude (x Veh level): 0.80 x Veh level
  N-arachidonoyl alanine: Direction (relative to Veh): ↓
  N-arachidonoyl alanine: Magnitude (x Veh level): 0.63 x Veh level
  N-arachidonoyl ethanolamine: Direction (relative to Veh): ↓
  N-arachidonoyl ethanolamine: Magnitude (x Veh level): 0.81 x Veh level
  N-arachidonoyl glycine: Direction (relative to Veh): ↓
  N-arachidonoyl glycine: Magnitude (x Veh level): 0.63 x Veh level
  N-oleoyl ethanolamine: Direction (relative to Veh): ↓
  N-oleoyl ethanolamine: Magnitude (x Veh level): 0.79 x Veh level
  N-palmitoyl GABA: Direction (relative to Veh): ↑
  N-palmitoyl GABA: Magnitude (x Veh level): 1.13 x Veh level
  N-palmitoyl ethanolamine: Direction (relative to Veh): ↓
  N-palmitoyl ethanolamine: Magnitude (x Veh level): 0.86 x Veh level
  N-palmitoyl leucine: Direction (relative to Veh): ↑
  N-palmitoyl leucine: Magnitude (x Veh level): 1.36 x Veh level
  N-palmitoyl methionine: Direction (relative to Veh): ↑
  N-palmitoyl methionine: Magnitude (x Veh level): 1.25 x Veh level
  N-palmitoyl valine: Direction (relative to Veh): ↑
  N-palmitoyl valine: Magnitude (x Veh level): 1.95 x Veh level
  Oleic acid: Direction (relative to Veh): ↓
  Oleic acid: Magnitude (x Veh level): 0.78 x Veh level
PND 35, 3 mg/kg CP 55,940
  2-linoleoyl glycerol Direction (relative to Veh): ↓
  2-linoleoyl glycerol Magnitude (x Veh level): 0.79 x Veh level
  6-ketoPGF1α Direction (relative to Veh): ↓
  6-ketoPGF1α Magnitude (x Veh level): 0.77 x Veh level
  N-arachidonoyl GABA Direction (relative to Veh): ↓
  N-arachidonoyl GABA Magnitude (x Veh level): 0.72 x Veh level
  N-arachidonoyl alanine Magnitude (x Veh level): 0.82 x Veh level
  N-arachidonoyl alanine, Direction (relative to Veh): ↓
  N-arachidonoyl ethanolamine, Direction (relative to Veh): ↑
  N-arachidonoyl ethanolamine, Magnitude (x Veh level): 1.21 x Veh level
  N-arachidonoyl glycine Direction (relative to Veh): ↓
  N-arachidonoyl glycine Magnitude (x Veh level): 0.86 x Veh level
  N-arachidonoyl phenylalanine, Direction (relative to Veh): ↑
  N-arachidonoyl phenylalanine, Magnitude (x Veh level): 1.20 x Veh level
  N-arachidonoyl serine Direction (relative to Veh): ↓
  N-arachidonoyl serine Magnitude (x Veh level): 0.81 x Veh level
  N-arachidonoyl taurine Direction (relative to Veh): ↓
  N-arachidonoyl taurine Magnitude (x Veh level): 0.87 x Veh level
  N-docosahexaenoyl GABA Direction (relative to Veh): ↓
  N-docosahexaenoyl GABA Magnitude (x Veh level): 0.71 x Veh level
  N-docosahexaenoyl alanine Direction (relative to Veh): ↓
  N-docosahexaenoyl alanine Magnitude (x Veh level): 0.69 x Veh level
  N-docosahexaenoyl glycine Direction (relative to Veh): ↓
  N-docosahexaenoyl glycine Magnitude (x Veh level): 0.85 x Veh level
  N-docosahexaenoyl leucine Direction (relative to Veh): ↑
  N-docosahexaenoyl leucine Magnitude (x Veh level): 1.78 x Veh level
  N-docosahexaenoyl phenylalanine Direction (relative to Veh): ↑
  N-docosahexaenoyl phenylalanine Magnitude (x Veh level): 1.25 x Veh level
  N-linoleoyl ethanolamine, Direction (relative to Veh): ↑
  N-linoleoyl ethanolamine, Magnitude (x Veh level): 1.29 x Veh level
  N-oleoyl GABA Magnitude (x Veh level): 0.81 x Veh level
  N-oleoyl GABA direction (relative to Veh): ↓
  N-oleoyl alanine Magnitude (x Veh level): 0.84 x Veh level
  N-oleoyl alanine direction (relative to Veh): ↓
